Data published in paper PMC10510102, “Efficient Ligand Discovery Using Sulfur(VI) Fluoride Reactive Fragments” (ACS Chemical Biology, 2023).

Tests used:
BCL6 BTB/POZ domain [1] = target: T1, BCL6 BTB/POZ domain (Homo sapiens, UniProt P41182, C67R/C84N/C8Q); experiment: Conventional differential scanning fluorimetry (DSF); assay type: binding; set-up: hBCL6-Flag 3Cmut (5-129) produced in house; FLAG (C); made in house; details: for Tm: 10 μM protein, covalent complex (500 μM SF, 6 or 24 h) or 200 μM GSK137, mean ± SD, three replicates; for ΔTm: relative to unmodified BCL6
Description: We subsequently analyzed protein-fragment interactions using differential scanning fluorimetry (DSF) to explore the impact of these binding events on protein stability.[45] […] […]; this illustrates the impact of covalent modification on protein–ligand binding. […]
8.2. Conventional differential scanning fluorimetry (DSF)
BCL6-SF covalent complex preparation:
SFs 2f–i, 2p, 2q, 2s, and 2t in DMSO-d 6 (200 mM stock) or pure DMSO-d 6 were added to crystallizable BCL6 BTB/POZ domain (10 µM) in 20 mM Tris pH 8.5 and 200 mM NaCl. The reactions were incubated at 20 °C for 6 h (meta-substituted benzamide fragments) or 24 h (azetidinyl/piperidinyl fragments). Final concentrations: 10 µM protein, 500 µM SF, DMSO 0.25% v/v in 200 µL. Unreacted compound and DMSO-d 6 were removed by buffer-exchanging protein solutions into 20 mM Tris pH 8.5, 200 mM NaCl and 5% v/v glycerol inside Vivaspin 500 PES Centrifugal Concentration units. The protein was concentrated to 0.6–1.3 mg/mL within the units, according to UV-vis absorption spectrophotometry via a Nanodrop ND-1000 instrument. Protein was flash frozen using a dry ice/ethanol bath prior to […]
Differential scanning fluorimetry assay:
GSK137 (40 mM stock) or pure DMSO-d 6 were added to crystallizable BCL6 BTB/POZ domain (11 µM) in 20 mM Tris pH 8.5, 200 mM NaCl and 5% v/v glycerol to give solutions containing: 11 µM protein, DMSO 0.63% v/v and 222 µM GSK137 (where applicable).
Concentrated protein-SF complexes were also thawed and diluted to 11 µM in 20 mM Tris pH 8.5, […] and 5% v/v glycerol.
SYPRO Orange dye (Invitrogen S6650) in extra dilution buffer (50×, eq. 1% v/v DMSO) was added to give assay-ready solutions with final concentrations: 10 µM protein, SYPRO 5×, DMSO 0.1% v/v in volume 80 µL for the protein-SF covalent complexes or 10 µM protein, SYPRO 5×, DMSO 0.6% v/v in volume 100 µL with and without 200 µM GSK137.
Each solution was aliquoted (3 × 20 µL) into wells of an opaque 384-well PCR microplate (Axygen PCR-384-LC480-W) and coated with silicone oil DC 200 (5 µL; Fluka Chemicals 85413). The microplate was centrifuged (1 min, 200 g) prior to insertion into a Fluodia T70 spectrophotometer (Photal Instruments). The fluorescence intensity was detected (emission wavelength: […]) as the plate instrument interior was heated from 27–75 °C using a temperature stepping mode (waiting time before measurement: 60 s; fluorescence measurement interval: 45 s). The approximate temperature gradient was 0.5 °C min-1.
The fluorescence intensity data from the individual replicates of each sample type were normalized and identically truncated within GraphPad Prism 5.0.4.11 These values were subsequently fitted to equation (4) corresponding to a Boltzmann sigmoid in order to obtain the melting temperature (“V50”; T m) of the protein:
Y=BOTTOM+((TOP+BOTTOM)/(1+exp((V50–X)/SLOPE))) (4)
The three obtained T m values were averaged to give a final T m value in each case. The normalized fluorescence data for the three replicates of each sample were averaged to yield a single dataset for each case, which were then plotted in GraphPad Prism 5.0.4 to give the plots shown in the manuscript.11
Table S9. Thermal melting temperatures of unmodified and covalently modified BCL6 BTB/POZ domain as determined by differential scanning fluorimetry measurements.
The arithmetic mean and standard deviation from three replicates are shown.
Hit Chemotype Protein Species Tm / °C ΔT m / °C […]
meta-Substituted Benzamide BCL6 + 2g 70.4 ± 0.3 +11.7
Azetidinyl Fragments BCL6 + 2h 55.5 ± 0.1 −3.2 […]
8.3. Protocol for kinetic analyzes (BCL6)
The (resynthesized and purified) SF hits (2f–i) were plated into seven Greiner 384 white low volume plate from a 10 mM source in DMSO. Differing volumes were added such that the final concentrations for each compound would be: 100, 50, 20, 10, or 5 µM after adding 15 µL of protein stock solution per well. […]

BCL6 BTB/POZ domain [2] = target: T1, BCL6 BTB/POZ domain; experiment: Displacement study with GSK137, intact protein LC-MS; assay type: binding; set-up: hBCL6-Flag-6H-Avi 3Cmut (5–129) produced as part of the GSK/GenScript collaboration; Flag (C); 6H (His6) (C); Avi (C); details: for Modification (GSK137 treatment) / Modification (DMSO-d6 treatment): 1 μM protein, 50 μM SF, 20 °C, 24 h, average of duplicate; for Modification (GSK137 treatment): 50 μM GSK137; for Displacement Ratio: DModification/Modification(DMSO-d6 treatment); for Displacement: attenuation of covalent modification by GSK137; for DModification: difference DMSO-d6 vs GSK137 treatment
Description: With additional hits identified from the iterative screen, we sought to obtain further structural and biophysical information to better understand how these reactive fragments bind to BCL6. A total of eight SF hits were resynthesized and purified: the four from the original screen (2f–i) and four from the iterative screen (2p, 2q, 2s, and 2t). […]
8. BCL6 – Further investigations into hits by structural and biophysical studies
8.1. Displacement study with GSK137
The (resynthesized and purified) SF hits (2f–i, 2p, 2q, 2s, and 2t) were plated into a Greiner 384 white low volume plate from a 10 mM source in DMSO, or DMSO-d 6 only as a control. GSK137 (11) was also added from a 10 mM source in DMSO. Purified BCL6 diluted from original stock into a buffer made up of HEPES (pH 7.5, 25 mM) and NaCl (50 mM) in distilled MS-grade water (15 µL per well) was subsequently added across the plate. Final concentrations: 1 µM protein; 50 µM SF; 50 µM GSK137. The plate was sealed, centrifuged (1 min, 1000 rpm), incubated at 20 °C for 24 h, and subsequently analyzed by intact protein LC-MS. This was performed in duplicate and average covalent modification yields were used for analysis.
Table S8. Quantitative output from intact LC-MS analysis of BCL6 BTB/POZ domain reacted with SFs after incubation of DMSO-d 6 or GSK137. Extent of displacement measured as (DModification/Modification(DMSO-d 6 treatment)). […]

CN(C)C(=O)Nc1cccc(CNC(=O)Cc2ccc(S(=O)(=O)F)cc2)c1 [2f]
Tm (BCL6 BTB/POZ domain [1]): 66.6 ± 0.3 °C | ΔTm (BCL6 BTB/POZ domain [1]): +7.9 °C | Modification (GSK137 treatment) (BCL6 BTB/POZ domain [2]): 3.8% | Modification (DMSO-d6 treatment) (BCL6 BTB/POZ domain [2]): 17.6% | Displacement Ratio (BCL6 BTB/POZ domain [2]): 0.78 | Displacement (BCL6 BTB/POZ domain [2]): 78% | DModification (BCL6 BTB/POZ domain [2]): 13.8%

O=C(Cc1ccc(S(=O)(=O)F)cc1)N1CC(Oc2ccc(F)c(F)c2)C1 [2h]
Tm (BCL6 BTB/POZ domain [1]): 55.5 ± 0.1 °C | ΔTm (BCL6 BTB/POZ domain [1]): −3.2 °C | Modification (GSK137 treatment) (BCL6 BTB/POZ domain [2]): 1.6% | Modification (DMSO-d6 treatment) (BCL6 BTB/POZ domain [2]): 10.3% | Displacement Ratio (BCL6 BTB/POZ domain [2]): 0.84 | Displacement (BCL6 BTB/POZ domain [2]): 84% | DModification (BCL6 BTB/POZ domain [2]): 8.7%

NC(=O)c1ccccc1OC1CN(C(=O)Cc2ccc(S(=O)(=O)F)cc2)C1 [2i]
Tm (BCL6 BTB/POZ domain [1]): 59.9 ± 0.4 °C | ΔTm (BCL6 BTB/POZ domain [1]): +1.2 °C | Modification (GSK137 treatment) (BCL6 BTB/POZ domain [2]): 1.6% | Modification (DMSO-d6 treatment) (BCL6 BTB/POZ domain [2]): 19.7% | Displacement Ratio (BCL6 BTB/POZ domain [2]): 0.92 | Displacement (BCL6 BTB/POZ domain [2]): 92% | DModification (BCL6 BTB/POZ domain [2]): 18.1%

CC(=O)Nc1cccc(CNC(=O)Cc2ccc(S(=O)(=O)F)cc2)c1 [2g]
Tm (BCL6 BTB/POZ domain [1]): 70.4 ± 0.3 °C | ΔTm (BCL6 BTB/POZ domain [1]): +11.7 °C | Modification (GSK137 treatment) (BCL6 BTB/POZ domain [2]): 4.8% | Modification (DMSO-d6 treatment) (BCL6 BTB/POZ domain [2]): 25.0% | Displacement Ratio (BCL6 BTB/POZ domain [2]): 0.81 | Displacement (BCL6 BTB/POZ domain [2]): 81% | DModification (BCL6 BTB/POZ domain [2]): 20.2%
